In general, Ki refers to the equilibrium dissociation constant of an inhibitor or competing ligand from its target.

In test [1] the test system is hypoxia-induced pulmonary hypertension rat. Nature of the test: Acute efficacy in hypoxia-induced pulmonary hypertension in rat following intratracheal administration. The test is classed as in vivo. Particulars: Dose IT 0.03 mpk. The text has this: Acute Efficacy in Hypoxia-Induced Pulmonary Hypertension in Rat Following Intratracheal Administration Charles River Sprague-Dawley (CD) male rats weighing approximately 350 g were implanted with HD-S21 dual pressure telemetry transmitters (Data Sciences International (DSI)) into the pulmonary artery and femoral artery. This transmitter enables simultaneous measurement of both pulmonary and systemic hemodynamic parameters in the same animal. After a 7-10 day post-operative recovery period, animals were subjected to a normobaric hypoxic (10% oxygen) environment using a Higher Peak Mountain Air Generator (MAG-10) connected to a modified rodent cage via a fitted inlet port. Oxygen (at 10%), temperature, humidity, and CO2 were controlled within normal range and animals were maintained on a 12 hour light-dark cycle with ad libitum access to food and water. After two weeks exposure to 10% O2 hypoxic environment, systolic pulmonary arterial pressure readings increased from 25 mmHg to greater than 50 mmHg. Using a 48 hour baseline average, animals with readings between 50-110 mmHg (standard deviation of less than 10 mmHg) and minimal changes in systolic systemic blood pressure were enrolled for study. Animals were utilized for up to 2 studies per week for 4 weeks with a minimum of 2 days washout between doses of test agent. Compound or vehicle was administered intra-tracheally under light isoflurane anesthesia (5% in oxygen; flow rate 2.0 L/min for 3 minutes). Once anesthetized, rats were placed on an angled intubation stand in supine position and the trachea visualized using a small laryngoscope. Animals then received either 0.5 mL/kg of vehicle or 0.5 mL/kg vehicle containing compound intra-tracheally delivered via microsprayer by use of a Penn-Century Microsprayer® needle 3″ (Model IA-1B-GP) attached to a 1 mL high pressure syringe (Penn Century-Model B-SYR-PL1000) (Penn-Century, Philadelphia, Pa.). The Microsprayer® tip was inserted into the trachea up to the point at which the bend in the needle is close to the tip of the snout, which positions the tip of the Microsprayer® in front of the carina (bifurcation of trachea at the bronchi). After dose delivery the animal is placed on its back in the home cage for recovery. Hemodynamic measurements were continuously recorded and readings consolidated to hourly moving averages. Each animal received a vehicle on Day 1 followed by vehicle or test agent on Day 2. Change from vehicle baseline was calculated by subtracting the hourly Day 1 vehicle response from the hourly Day 2 response and treatment group data was expressed as mean±SEM. Decreases of systolic blood pressure (SBP) and systolic pulmonary arterial pressure (PAP) were measured at a particular IT dose (mpk milligrams per kilogram) for the following Example compounds.

Test [2] concerns the target human recombinant sGC enzyme (Homo sapiens (Human), UniProt Q02108+Q02153). Nature of the test: Size Exclusion Chromatography (SEC) competition binding assay using [3H] Ex-77B as the radioligand. Particulars: [3H] Ex-77B radioligand, 24 hours at 37° C. In a few lines: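 Recombinant human sGC binding measured by competition against tritiated Ex-77B radioligand, with non-specific binding defined by 1 μM unlabeled Ex-77B.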
A general note: Size exclusion chromatography separates by hydrodynamic size, large species first.

For the next test, the target named is sGC α1/β1 heterodimer (Homo sapiens (Human), UniProt Q02108+Q02153). Nature of the test: Cell-based sGC functional assay (cyclic GMP assay for sGC activator: CASA assay). Particulars: CHO-K1/sGC cells; for Emax: CHO-K1, activity expressed as percentage of compound A (standard), read-out: % Activation; for EC50: inflection point, 4P fit, read-out: IP. In a few lines:
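CHO-K1 cells stably expressing human sGC α1/β1 were pre-incubated 30 min at 25° C with or without 1 μM DETA-NO, then exposed to compound for 1 hr at 37° C with 0.5 mM IBMX and 2.5% DMSO final. Intracellular cGMP was measured by HTRF, expressed as % of reference sGC-HDA maximum; inflection point and maximum fold induction came from 4-parameter fits.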

Test [3] deals with Spontaneously hypertensive rats (SHR). Nature of the test: Acute efficacy in spontaneously hypertensive rats (SHR). Format: in vivo, rat. In a few lines:
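Conscious male SHR with aortic telemetry implants given a single oral gavage of compound in 10% transcutol/20% Cremophor/70% water. Blood pressure sampled continuously, averaged hourly and corrected against vehicle baseline recorded the previous day; maximum peak systolic BP decrease reported at stated oral dose (mg/kg).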

Regarding `C[C@@]1(c2ccc(CCC(=O)O)cc2)C(=O)Nc2nc(-c3nn(Cc4ccccc4F)c4ncccc34)nc(N)c21` [Example 21B, (S)-3-(4-{4-amino-2-[1-(2-fluorobenzyl)-1H-pyrazolo[3,4-b]pyridin-3-yl]-5-methyl-6-oxo-6,7-dihydro-5H-pyrrolo[2,3-d]pyrimidin-5-yl}phenyl)propanoic acid], in test [1], the “Category: decrease in SBP (at minimum decrease in PAP of ≥15 mmHg)” value (from here on “Category: decrease in SBP”) is listed as “A (decrease in SBP 0-5 mmHg)”. In test [2], the Ki turned out to be 0.064 nM. In addition, on sGC α1/β1 heterodimer, the Emax was found to be 93% and the EC50 was found to be 362 nM. Moreover, the “Category: maximum peak decrease of systolic blood pressure (SBP) in SHR” value (from here on “Category: maximum peak decrease”) in test [3] (Dose P.O. 3 mpk) was “A (decrease in SBP in SHRs 5-25 mmHg)”.
Regarding `C[C@@]1(c2ccc(CCC(=O)O)cc2)C(=O)Nc2nc(-c3nn(CCC(F)(F)C(F)(F)F)c4cc(F)ccc34)nc(N)c21` [Example 46B, (S)-3-(4-{4-amino-2-[6-fluoro-1-(3,3,4,4,4-pentafluorobutyl)-1H-indazol-3-yl]-5-methyl-6-oxo-6,7-dihydro-5H-pyrrolo[2,3-d]pyrimidin-5-yl}phenyl)propanoic acid], the “Category: decrease in SBP” value in test [1] is reported as “A (decrease in SBP 0-5 mmHg)”. Also, the Ki in test [2] came to 0.216 nM. In addition, at sGC α1/β1 heterodimer, the Emax worked out at 95% and the EC50 worked out at 647 nM. Besides, the “Category: maximum peak decrease” value in test [3] (Dose P.O. 3 mpk) was “A (decrease in SBP in SHRs 5-25 mmHg)”.
The like results for `CC(C)(Cc1coc(C2(C)C(=O)Nc3nc(-c4nn(CCC(F)(F)C(F)(F)F)c5cc(Cl)ccc45)nc(N)c32)n1)C(=O)O` (stereo not shown) [Example 2A, 3-(2-{4-amino-2-[6-chloro-1-(3,3,4,4,4-pentafluorobutyl)-1H-indazol-3-yl]-5-methyl-6-oxo-6,7-dihydro-5H-pyrrolo[2,3-d]pyrimidin-5-yl}oxazol-4-yl)-2,2-dimethyl-propanoic acid] were, in that order, “A (decrease in SBP 0-5 mmHg)”, 0.322 nM, 111%, 1060 nM and “A (decrease in SBP in SHRs 5-25 mmHg)”.
For the compound `CC(C)(Cc1csc(C2(C)C(=O)Nc3nc(-c4nn(CCC(F)(F)C(F)(F)F)c5ncc(F)cc45)nc(N)c32)n1)C(=O)O` (stereo not shown) [Example 84A, 3-(2-{4-amino-2-[5-fluoro-1-(3,3,4,4,4-pentafluorobutyl)-1H-pyrazolo[3,4-b]pyridin-3-yl]-5-methyl-6-oxo-6,7-dihydro-5H-pyrrolo[2,3-d]pyrimidin-5-yl}-1,3-thiazol-4-yl)-2,2-dimethylpropanoic acid], in test [1], the “Category: decrease in SBP” value is on record as “A (decrease in SBP 0-5 mmHg)”. The Ki in test [2] came to 0.166 nM. Further, on sGC α1/β1 heterodimer, the Emax came out at 113% and the EC50 worked out at 130 nM. The “Category: maximum peak decrease” value in test [3] (Dose P.O. 1 mpk) was “C (decrease in SBP in SHRs>40 mmHg)”.
With `CC(C)(Cc1csc([C@]2(C)C(=O)Nc3nc(-c4nn(CCC(F)(F)C(F)(F)F)c5cc(Cl)ccc45)nc(N)c32)n1)C(=O)O` [Example 92B, (S)-3-(2-{4-amino-2-[6-chloro-1-(3,3,4,4,4-pentafluorobutyl)-1H-indazol-3-yl]-5-methyl-6-oxo-6,7-dihydro-5H-pyrrolo[2,3-d]pyrimidin-5-yl}-1,3-thiazol-4-yl)-2,2-dimethylpropanoic acid], the “Category: decrease in SBP” value in test [1] is given as “A (decrease in SBP 0-5 mmHg)”. For the same compound, the Ki in test [2] came to 0.175 nM. On sGC α1/β1 heterodimer, the Emax was 111% and the EC50 came to 219 nM. Also, the “Category: maximum peak decrease” value in test [3] (Dose P.O. 0.3 mpk) is reported as “A (decrease in SBP in SHRs 5-25 mmHg)”.

The values are drawn from patent US10030027B2, “Soluble guanylate cyclase stimulators” (MERCK SHARP & DOHME CORP., priority 2015, dated 2018).
